Experiments:
Experiment in all cases: Tumor-associated kinase inhibition test
Type in all cases: biochemical
Ros(h) = target: T1, Ros(h) (Homo sapiens, UniProt P08922); settings: read-out: Inhibitory rate (%)
T1 construct: purchased Eurofins Pharma Discovery Services UK Limited
From the text: (§1) Eurofins Pharma Discovery Services UK Limited completed and reported this experiment.

Fyn(h) = target: T2, Fyn(h) (Homo sapiens, UniProt P06241); settings: read-out: Inhibitory rate (%)
T2 construct: purchased Eurofins Pharma Discovery Services UK Limited (contract testing)
From the text: as §1

PKCα(h) = target: T3, PKCα(h) (Homo sapiens, UniProt P17252); settings: read-out: Inhibitory rate (%)
T3 construct: purchased Eurofins Pharma Discovery Services UK Limited
From the text: as §1

cSRC(h) = target: T4, cSRC(h) (Homo sapiens, UniProt P12931); settings: read-out: Inhibitory rate (%)
T4 construct: purchased Eurofins Pharma Discovery Services UK Limited (contract testing)
From the text: as §1

LKB1(h) = target: T5, LKB1(h) (Homo sapiens, UniProt Q15831); settings: read-out: Inhibitory rate (%)
T5 construct: purchased Eurofins Pharma Discovery Services UK Limited
From the text: as §1

CDK6/cyclinD3(h) = target: T6, CDK6/cyclinD3(h) (Homo sapiens, UniProt Q00534); settings: read-out: Inhibitory rate (%)
T6 construct: purchased Eurofins Pharma Discovery Services UK Limited (contract assay service)
From the text: as §1

Lck(h)activated = target: T7, Lck(h)activated (Homo sapiens, UniProt P06239); settings: read-out: Inhibitory rate (%)
T7 construct: purchased Eurofins Pharma Discovery Services UK Limited
From the text: as §1

CaMKIV(h) = target: T8, CaMKIV(h) (Homo sapiens, UniProt Q16566); settings: read-out: Inhibitory rate (%)
T8 construct: purchased Eurofins Pharma Discovery Services UK Limited (contract assay service)
From the text: as §1

Itk(h) = target: T9, Itk(h) (Homo sapiens, UniProt Q08881); settings: read-out: Inhibitory rate (%)
T9 construct: purchased Eurofins Pharma Discovery Services UK Limited (contract testing)
From the text: as §1

CaMKI(h) = target: T10, CaMKI(h) (Homo sapiens, UniProt Q14012); settings: read-out: Inhibitory rate (%)
T10 construct: purchased Eurofins Pharma Discovery Services UK Limited (contract assay service)
From the text: as §1

mTOR(h) = target: T11, mTOR(h) (Homo sapiens, UniProt P42345)
T11 construct: purchased Eurofins Pharma Discovery Services UK Limited (contract assay)
From the text: as §1

JNK1α1(h) = target: T12, JNK1α1(h) (Homo sapiens, UniProt P45983); settings: read-out: Inhibitory rate (%)
T12 construct: purchased Eurofins Pharma Discovery Services UK Limited (contract testing)
From the text: as §1

[1] = target: T13, PI3Kinase(p110α(E545K)/p85α)(h) (Homo sapiens, UniProt P42336, E545K); settings: read-out: Inhibitory rate (%)
T13 construct: purchased Eurofins Pharma Discovery Services UK Limited (contract assay)
From the text: as §1

IKKα(h) = target: T14, IKKα(h) (Homo sapiens, UniProt O15111); settings: read-out: Inhibitory rate (%)
T14 construct: purchased Eurofins Pharma Discovery Services UK Limited (contract testing)
From the text: as §1

PI3Kinase(p110α/p85α)(h) = target: T15, PI3Kinase(p110α/p85α)(h) (Homo sapiens, UniProt P42336); settings: read-out: Inhibitory rate (%)
T15 construct: purchased Eurofins Pharma Discovery Services UK Limited (contract assay)
From the text: as §1

PKCμ(h) = target: T16, PKCμ(h) (Homo sapiens, UniProt Q15139); settings: read-out: Inhibitory rate (%)
T16 construct: purchased Eurofins Pharma Discovery Services UK Limited
From the text: as §1

NEK2(h) = target: T17, NEK2(h) (Homo sapiens, UniProt P51955); settings: read-out: Inhibitory rate (%)
T17 construct: purchased Eurofins Pharma Discovery Services UK Limited
From the text: as §1

FGFR1(h) = target: T18, FGFR1(h) (Homo sapiens, UniProt P11362); settings: read-out: Inhibitory rate (%)
T18 construct: purchased Eurofins Pharma Discovery Services UK Limited (contract testing)
From the text: as §1

PRAK(h) = target: T19, PRAK(h) (Homo sapiens, UniProt Q8IW41); settings: read-out: Inhibitory rate (%)
T19 construct: purchased Eurofins Pharma Discovery Services UK Limited
From the text: as §1

EphB4(h) = target: T20, EphB4(h) (Homo sapiens, UniProt P54760); settings: read-out: Inhibitory rate (%)
T20 construct: purchased Eurofins Pharma Discovery Services UK Limited (contract testing)
From the text: as §1

GSK3β(h) = target: T21, GSK3β(h) (Homo sapiens, UniProt P49841); settings: read-out: Inhibitory rate (%)
T21 construct: purchased Eurofins Pharma Discovery Services UK Limited (contract testing)
From the text: as §1

MARK1(h) = target: T22, MARK1(h) (Homo sapiens, UniProt Q9P0L2); settings: read-out: Inhibitory rate (%)
T22 construct: purchased Eurofins Pharma Discovery Services UK Limited
From the text: as §1

Rsk1(h) = target: T23, Rsk1(h) (Homo sapiens, UniProt Q15418); settings: read-out: Inhibitory rate (%)
T23 construct: purchased Eurofins Pharma Discovery Services UK Limited
From the text: as §1

PKBα(h) = target: T24, PKBα(h) (Homo sapiens, UniProt P31749); settings: read-out: Inhibitory rate (%)
T24 construct: purchased Eurofins Pharma Discovery Services UK Limited
From the text: as §1

CHK2(h) = target: T25, CHK2(h) (Homo sapiens, UniProt O96017); settings: read-out: Inhibitory rate (%)
T25 construct: purchased Eurofins Pharma Discovery Services UK Limited (contract assay service)
From the text: as §1

PI3KC2γ(h) = target: T26, PI3KC2γ(h) (Homo sapiens, UniProt O75747); settings: read-out: Inhibitory rate (%)
T26 construct: purchased Eurofins Pharma Discovery Services UK Limited (contract assay)
From the text: as §1

PKCβII(h) = target: T27, PKCβII(h) (Homo sapiens, UniProt P05771); settings: read-out: Inhibitory rate (%)
T27 construct: purchased Eurofins Pharma Discovery Services UK Limited
From the text: as §1

p70S6K(h) = target: T28, p70S6K(h) (Homo sapiens, UniProt P23443); settings: read-out: Inhibitory rate (%)
T28 construct: purchased Eurofins Pharma Discovery Services UK Limited
From the text: as §1

CDK3/cyclinE(h) = target: T29, CDK3/cyclinE(h) (Homo sapiens, UniProt Q00526); settings: read-out: Inhibitory rate (%)
T29 construct: purchased Eurofins Pharma Discovery Services UK Limited (contract assay service)
From the text: as §1

PKBβ(h) = target: T30, PKBβ(h) (Homo sapiens, UniProt P31751); settings: read-out: Inhibitory rate (%)
T30 construct: purchased Eurofins Pharma Discovery Services UK Limited
From the text: as §1

BTK(h) = target: T31, BTK(h) (Homo sapiens, UniProt Q06187); settings: read-out: Inhibitory rate (%)
T31 construct: purchased Eurofins Pharma Discovery Services UK Limited (contract assay service)
From the text: as §1

Arg(h) = target: T32, Arg(h) (Homo sapiens, UniProt P42684); settings: read-out: Inhibitory rate (%)
T32 construct: purchased Eurofins Pharma Discovery Services UK Limited (contract assay service)
From the text: as §1

Axl(h) = target: T33, Axl(h) (Homo sapiens, UniProt P30530); settings: read-out: Inhibitory rate (%)
T33 construct: purchased Eurofins Pharma Discovery Services UK Limited (contract assay service)
From the text: as §1

Abl(T315I)(h) = target: T34, Abl(T315I)(h) (Homo sapiens, UniProt P00519, T315I); settings: read-out: Inhibitory rate (%)
T34 construct: purchased Eurofins Pharma Discovery Services UK Limited (contract assay service)
From the text: as §1

PI3Kinase(p110β/p85α)(h) = target: T35, PI3Kinase(p110β/p85α)(h) (Homo sapiens, UniProt P42338); settings: read-out: Inhibitory rate (%)
T35 construct: purchased Eurofins Pharma Discovery Services UK Limited (contract assay)
From the text: as §1

PI3Kinase(p110δ/p85α)(h) = target: T36, PI3Kinase(p110δ/p85α)(h) (Homo sapiens, UniProt O00329); settings: read-out: Inhibitory rate (%)
T36 construct: purchased Eurofins Pharma Discovery Services UK Limited (contract assay)
From the text: as §1

PIP5K1γ(h) = target: T37, PIP5K1γ(h) (Homo sapiens, UniProt O60331); settings: read-out: Inhibitory rate (%)
T37 construct: purchased Eurofins Pharma Discovery Services UK Limited (contract assay)
From the text: as §1

CDK2/cyclinA(h) = target: T38, CDK2/cyclinA(h) (Homo sapiens, UniProt P24941); settings: read-out: Inhibitory rate (%)
T38 construct: purchased Eurofins Pharma Discovery Services UK Limited (contract assay service)
From the text: as §1

Tie2(h) = target: T39, Tie2(h) (Homo sapiens, UniProt Q02763); settings: read-out: Inhibitory rate (%)
T39 construct: purchased Eurofins Pharma Discovery Services UK Limited
From the text: as §1

T22 sequence (Q9P0L2 whole entry): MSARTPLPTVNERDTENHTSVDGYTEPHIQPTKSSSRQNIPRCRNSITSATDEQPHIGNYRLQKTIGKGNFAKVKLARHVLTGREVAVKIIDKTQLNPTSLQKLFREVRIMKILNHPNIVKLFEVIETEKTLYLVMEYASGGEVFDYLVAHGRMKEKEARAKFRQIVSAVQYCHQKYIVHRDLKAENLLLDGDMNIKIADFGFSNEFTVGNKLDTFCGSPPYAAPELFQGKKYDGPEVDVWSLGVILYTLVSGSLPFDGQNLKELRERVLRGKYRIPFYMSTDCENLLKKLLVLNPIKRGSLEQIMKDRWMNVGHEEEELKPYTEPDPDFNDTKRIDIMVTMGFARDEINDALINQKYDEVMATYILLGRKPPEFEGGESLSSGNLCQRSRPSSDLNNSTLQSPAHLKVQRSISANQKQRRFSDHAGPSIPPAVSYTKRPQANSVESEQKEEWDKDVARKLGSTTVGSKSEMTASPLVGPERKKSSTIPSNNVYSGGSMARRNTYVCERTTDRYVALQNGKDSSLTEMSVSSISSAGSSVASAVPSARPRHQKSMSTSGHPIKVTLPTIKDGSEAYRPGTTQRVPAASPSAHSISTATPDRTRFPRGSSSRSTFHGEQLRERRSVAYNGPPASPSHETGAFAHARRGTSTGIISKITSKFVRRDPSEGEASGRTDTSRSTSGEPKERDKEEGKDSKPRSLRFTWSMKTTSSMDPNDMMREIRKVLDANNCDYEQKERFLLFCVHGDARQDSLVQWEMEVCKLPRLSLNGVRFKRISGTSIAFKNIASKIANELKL
T8 sequence (Q16566 whole entry): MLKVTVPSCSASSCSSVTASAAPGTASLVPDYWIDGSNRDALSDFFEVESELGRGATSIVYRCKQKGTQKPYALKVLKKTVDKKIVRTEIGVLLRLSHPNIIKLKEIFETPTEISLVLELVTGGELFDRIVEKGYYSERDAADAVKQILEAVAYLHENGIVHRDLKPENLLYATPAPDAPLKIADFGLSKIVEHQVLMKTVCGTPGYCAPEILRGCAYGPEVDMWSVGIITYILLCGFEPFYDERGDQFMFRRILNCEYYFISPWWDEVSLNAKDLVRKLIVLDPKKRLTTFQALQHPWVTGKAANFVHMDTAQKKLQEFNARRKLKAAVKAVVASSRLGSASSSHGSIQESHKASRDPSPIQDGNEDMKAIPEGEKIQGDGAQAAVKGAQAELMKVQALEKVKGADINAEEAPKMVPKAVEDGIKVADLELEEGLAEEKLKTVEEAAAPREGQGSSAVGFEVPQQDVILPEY
T18 sequence (P11362 22-822): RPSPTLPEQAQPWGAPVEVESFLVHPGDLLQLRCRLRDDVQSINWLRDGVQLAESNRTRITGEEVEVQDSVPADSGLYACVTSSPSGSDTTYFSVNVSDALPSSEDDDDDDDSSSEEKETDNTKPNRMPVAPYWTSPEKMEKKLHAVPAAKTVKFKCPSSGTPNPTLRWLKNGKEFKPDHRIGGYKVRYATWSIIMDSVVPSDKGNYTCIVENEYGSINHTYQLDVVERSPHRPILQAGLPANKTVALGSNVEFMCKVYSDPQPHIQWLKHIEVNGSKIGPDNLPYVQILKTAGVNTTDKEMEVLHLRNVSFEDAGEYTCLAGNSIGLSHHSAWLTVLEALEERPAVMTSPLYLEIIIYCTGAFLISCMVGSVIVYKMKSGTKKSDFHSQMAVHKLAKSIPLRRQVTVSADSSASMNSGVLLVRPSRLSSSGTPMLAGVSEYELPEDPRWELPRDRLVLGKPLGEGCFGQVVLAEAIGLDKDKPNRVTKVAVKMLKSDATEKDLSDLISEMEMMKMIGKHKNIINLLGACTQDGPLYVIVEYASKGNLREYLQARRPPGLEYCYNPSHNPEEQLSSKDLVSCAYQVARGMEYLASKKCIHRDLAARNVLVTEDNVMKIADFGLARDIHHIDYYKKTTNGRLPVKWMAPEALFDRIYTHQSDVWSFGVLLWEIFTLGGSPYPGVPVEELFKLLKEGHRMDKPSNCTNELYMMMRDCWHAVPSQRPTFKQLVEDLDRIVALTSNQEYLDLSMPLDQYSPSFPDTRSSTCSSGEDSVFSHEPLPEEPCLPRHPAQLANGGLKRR
T2 sequence (P06241 whole entry): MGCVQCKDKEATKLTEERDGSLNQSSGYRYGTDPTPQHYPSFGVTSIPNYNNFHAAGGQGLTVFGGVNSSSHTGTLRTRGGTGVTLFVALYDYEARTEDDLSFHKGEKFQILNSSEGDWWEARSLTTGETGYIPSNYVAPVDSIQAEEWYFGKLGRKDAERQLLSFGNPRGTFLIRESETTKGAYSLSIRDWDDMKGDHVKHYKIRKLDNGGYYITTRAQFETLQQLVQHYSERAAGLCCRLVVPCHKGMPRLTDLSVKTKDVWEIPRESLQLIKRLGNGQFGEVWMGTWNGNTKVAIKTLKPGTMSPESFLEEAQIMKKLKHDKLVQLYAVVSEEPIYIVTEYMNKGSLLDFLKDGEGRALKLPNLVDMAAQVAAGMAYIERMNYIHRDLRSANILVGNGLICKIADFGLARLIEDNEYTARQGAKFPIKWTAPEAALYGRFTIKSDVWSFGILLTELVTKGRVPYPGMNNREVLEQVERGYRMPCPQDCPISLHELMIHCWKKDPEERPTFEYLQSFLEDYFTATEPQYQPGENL
T4 sequence (P12931 whole entry): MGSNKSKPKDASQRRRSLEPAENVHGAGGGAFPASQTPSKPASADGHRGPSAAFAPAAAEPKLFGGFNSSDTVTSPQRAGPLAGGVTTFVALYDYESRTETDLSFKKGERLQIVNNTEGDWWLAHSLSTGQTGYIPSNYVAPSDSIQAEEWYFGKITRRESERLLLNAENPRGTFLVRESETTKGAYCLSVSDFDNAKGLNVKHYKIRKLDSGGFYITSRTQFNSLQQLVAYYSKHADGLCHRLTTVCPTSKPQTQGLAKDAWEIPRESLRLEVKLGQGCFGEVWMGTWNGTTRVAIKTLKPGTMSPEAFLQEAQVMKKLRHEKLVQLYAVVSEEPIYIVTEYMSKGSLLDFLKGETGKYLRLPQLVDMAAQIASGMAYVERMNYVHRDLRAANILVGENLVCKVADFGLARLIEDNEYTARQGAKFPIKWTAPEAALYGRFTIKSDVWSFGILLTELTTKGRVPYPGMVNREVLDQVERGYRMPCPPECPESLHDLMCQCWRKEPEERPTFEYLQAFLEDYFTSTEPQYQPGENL
T13 sequence (P42336 whole entry E545K): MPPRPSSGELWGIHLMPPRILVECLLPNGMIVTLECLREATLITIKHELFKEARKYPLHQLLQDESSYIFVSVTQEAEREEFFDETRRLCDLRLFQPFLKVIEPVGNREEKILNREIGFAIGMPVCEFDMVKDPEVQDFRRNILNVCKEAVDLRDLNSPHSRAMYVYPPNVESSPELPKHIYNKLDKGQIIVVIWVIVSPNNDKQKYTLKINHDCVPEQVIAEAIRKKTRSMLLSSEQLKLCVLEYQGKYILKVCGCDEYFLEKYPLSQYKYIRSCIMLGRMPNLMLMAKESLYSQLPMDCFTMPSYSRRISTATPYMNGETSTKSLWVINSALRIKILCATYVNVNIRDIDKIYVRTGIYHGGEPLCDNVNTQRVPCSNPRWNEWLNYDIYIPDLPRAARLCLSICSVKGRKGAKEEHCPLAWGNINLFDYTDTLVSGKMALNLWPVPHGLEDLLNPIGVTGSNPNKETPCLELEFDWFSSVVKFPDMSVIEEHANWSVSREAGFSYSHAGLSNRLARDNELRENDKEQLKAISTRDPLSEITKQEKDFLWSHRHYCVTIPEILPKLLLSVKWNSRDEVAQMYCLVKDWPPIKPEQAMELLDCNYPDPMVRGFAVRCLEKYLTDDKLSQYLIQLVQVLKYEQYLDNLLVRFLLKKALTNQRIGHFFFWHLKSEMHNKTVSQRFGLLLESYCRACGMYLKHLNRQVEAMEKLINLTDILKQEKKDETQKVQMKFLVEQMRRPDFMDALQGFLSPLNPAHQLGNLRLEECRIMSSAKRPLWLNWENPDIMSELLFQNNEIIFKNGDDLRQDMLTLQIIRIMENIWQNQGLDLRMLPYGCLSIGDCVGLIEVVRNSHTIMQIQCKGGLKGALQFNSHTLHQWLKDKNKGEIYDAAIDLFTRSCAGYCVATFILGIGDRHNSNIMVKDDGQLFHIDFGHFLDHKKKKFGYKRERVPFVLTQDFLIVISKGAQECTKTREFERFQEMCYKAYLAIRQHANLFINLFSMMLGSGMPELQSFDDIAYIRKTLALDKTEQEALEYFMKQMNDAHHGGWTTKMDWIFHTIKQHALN
T13 sequence (P27986 whole entry partner): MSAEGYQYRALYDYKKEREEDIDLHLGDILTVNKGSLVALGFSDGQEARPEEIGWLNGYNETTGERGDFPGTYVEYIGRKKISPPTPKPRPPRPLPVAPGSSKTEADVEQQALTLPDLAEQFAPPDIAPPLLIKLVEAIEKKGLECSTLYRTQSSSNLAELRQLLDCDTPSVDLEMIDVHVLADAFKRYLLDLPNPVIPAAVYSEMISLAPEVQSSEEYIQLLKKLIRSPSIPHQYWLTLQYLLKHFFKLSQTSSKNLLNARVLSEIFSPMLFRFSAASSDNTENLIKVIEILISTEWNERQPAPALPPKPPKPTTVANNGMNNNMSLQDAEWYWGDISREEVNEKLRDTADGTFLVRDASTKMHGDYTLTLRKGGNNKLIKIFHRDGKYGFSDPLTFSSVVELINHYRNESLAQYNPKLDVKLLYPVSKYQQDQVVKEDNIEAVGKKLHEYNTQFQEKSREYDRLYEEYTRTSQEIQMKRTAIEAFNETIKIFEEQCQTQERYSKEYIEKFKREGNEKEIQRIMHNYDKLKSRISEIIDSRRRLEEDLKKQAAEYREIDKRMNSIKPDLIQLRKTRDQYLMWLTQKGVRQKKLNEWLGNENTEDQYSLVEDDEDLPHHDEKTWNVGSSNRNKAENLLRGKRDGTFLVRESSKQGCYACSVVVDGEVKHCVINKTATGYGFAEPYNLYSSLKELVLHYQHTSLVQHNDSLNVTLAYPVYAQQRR
T15 sequence (P42336 whole entry): as the sequence (P42336 whole entry E545K) above, with K545E counted along it
T15 sequence (P27986 whole entry partner): as the sequence (P27986 whole entry partner) above

inhibition at 10 µM (Ros(h)): -13%
inhibition at 10 µM (Fyn(h)): 2%
inhibition at 10 µM (PKCα(h)): 24%
inhibition at 10 µM (cSRC(h)): -4%
inhibition at 10 µM (LKB1(h)): 8%
inhibition at 10 µM (CDK6/cyclinD3(h)): -1%
inhibition at 10 µM (Lck(h)activated): -1%
inhibition at 10 µM (CaMKIV(h)): 2%
inhibition at 10 µM (Itk(h)): -7%
inhibition at 10 µM (CaMKI(h)): -1%
Selectivity among 114 tumor-associated kinases (mTOR(h); 10 μM, in words): selectively inhibit the activity of mTOR
inhibition at 10 µM (mTOR(h); mTOR(h), read-out: Inhibitory rate (%)): 95%
inhibition at 10 µM (JNK1α1(h)): 4%
inhibition at 10 µM [1]: 4%
inhibition at 10 µM (IKKα(h)): 5%
inhibition at 10 µM (PI3Kinase(p110α/p85α)(h)): -1%
inhibition at 10 µM (PKCμ(h)): 6%
inhibition at 10 µM (NEK2(h)): -6%
inhibition at 10 µM (FGFR1(h)): 4%
inhibition at 10 µM (PRAK(h)): 10%
inhibition at 10 µM (EphB4(h)): -8%
inhibition at 10 µM (GSK3β(h)): 6%
inhibition at 10 µM (MARK1(h)): -1%
inhibition at 10 µM (Rsk1(h)): 9%
inhibition at 10 µM (PKBα(h)): 4%
inhibition at 10 µM (CHK2(h)): 4%
inhibition at 10 µM (PI3KC2γ(h)): 3%
inhibition at 10 µM (PKCβII(h)): 6%
inhibition at 10 µM (p70S6K(h)): 3%
inhibition at 10 µM (CDK3/cyclinE(h)): 7%
inhibition at 10 µM (PKBβ(h)): 4%
inhibition at 10 µM (BTK(h)): 7%
inhibition at 10 µM (Arg(h)): -7%
inhibition at 10 µM (Axl(h)): 24%
inhibition at 10 µM (Abl(T315I)(h)): -14%
inhibition at 10 µM (PI3Kinase(p110β/p85α)(h)): -3%
inhibition at 10 µM (PI3Kinase(p110δ/p85α)(h)): 3%
inhibition at 10 µM (PIP5K1γ(h)): -1%
inhibition at 10 µM (CDK2/cyclinA(h)): -2%
inhibition at 10 µM (Tie2(h)): 14%
SMILES: C=C(C)n1c(=O)n(C(C)=O)c2ncc(Br)cc21 [FD162]

Source: patent publication US9738612B2, “Methylacryloyl benzimidazolone derivative and anti-tumour use thereof” (SHANGHAI NATURE STANDARD R&D AND BIOTECH CO., LTD, priority 2014, dated 2017)
